From ChEMBL document CHEMBL4184149, “Discovery and process development of a novel TACE inhibitor for the topical treatment of psoriasis” (Bioorg Med Chem, 2018) come the findings set out here.

Converted amounts (≈) assume the structure as drawn.

One data set deals with Neutrophil collagenase (Homo sapiens, UniProt P22894). The data set can be described thus: Inhibition of MMP8 (unknown origin).
For data set [1], the system named is TK6. Description: Genotoxicity in human TK6 cells in absence of rat S9 fraction by Giemsa staining based micronucleus assay. The format is toxicity, cell-based.
Data set [2] concerns the target T1, Disintegrin and metalloproteinase domain-containing protein 17 (Homo sapiens, UniProt P78536). The data set can be described thus: Inhibition of TACE in NHEK assessed as reduction in LPS/TPA-stimulated TNFalpha production preincubated for 1 hr followed by LPS/TPA stimulation for 24 hrs by HTRF assay. A general note: TR-FRET usually uses a lanthanide donor and a delayed reading to cut background.

A short description of data set [3]: Half life in human neonatal keratinocytes at 1 uM by LC-MS/MS analysis. The class given is ADME, cell-based.
Data set [4] has as its target Macrophage metalloelastase (Homo sapiens, UniProt P39900). The data set can be described thus: Inhibition of MMP12 (unknown origin).
The next data set addresses T2, Matrilysin (Homo sapiens, UniProt P09237).
T2 sequence (P09237 whole entry): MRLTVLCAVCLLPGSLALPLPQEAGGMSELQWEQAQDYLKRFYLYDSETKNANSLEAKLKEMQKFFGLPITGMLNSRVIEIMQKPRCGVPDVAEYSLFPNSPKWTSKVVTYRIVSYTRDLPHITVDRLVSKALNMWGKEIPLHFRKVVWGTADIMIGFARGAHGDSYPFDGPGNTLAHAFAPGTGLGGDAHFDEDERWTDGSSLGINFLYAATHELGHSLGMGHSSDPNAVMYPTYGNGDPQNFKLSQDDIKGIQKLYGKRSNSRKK
Description: Inhibition of MMP7 (unknown origin).

Data set [5] has as its system TK6. The data set can be described thus: Genotoxicity in p53-competent human TK6 cells in absence of Sprague-Dawley rat S9 fraction by GADD45alpha GFP reporter assay. The format is toxicity, cell-based. For orientation: Reporter assays use an easily measured gene product as a stand-in for the process of interest.
Data set [6] in a line: Fraction unbound in human plasma at 5 uM after 4 hrs by LC-MS/MS analysis. The class given is ADME, cell-free.
Data set [7] can be described thus: Solubility of the compound in propylene glycol/ethanol96 at 30 mg/ml after 24 hrs by UV-spectrometric analysis. The class given is physicochemical. To be noted: propylene glycol/ethanol96.
In data set [8] the target is T3, Disintegrin and metalloproteinase domain-containing protein 9 (Homo sapiens, UniProt Q13443).
T3 sequence (Q13443 whole entry): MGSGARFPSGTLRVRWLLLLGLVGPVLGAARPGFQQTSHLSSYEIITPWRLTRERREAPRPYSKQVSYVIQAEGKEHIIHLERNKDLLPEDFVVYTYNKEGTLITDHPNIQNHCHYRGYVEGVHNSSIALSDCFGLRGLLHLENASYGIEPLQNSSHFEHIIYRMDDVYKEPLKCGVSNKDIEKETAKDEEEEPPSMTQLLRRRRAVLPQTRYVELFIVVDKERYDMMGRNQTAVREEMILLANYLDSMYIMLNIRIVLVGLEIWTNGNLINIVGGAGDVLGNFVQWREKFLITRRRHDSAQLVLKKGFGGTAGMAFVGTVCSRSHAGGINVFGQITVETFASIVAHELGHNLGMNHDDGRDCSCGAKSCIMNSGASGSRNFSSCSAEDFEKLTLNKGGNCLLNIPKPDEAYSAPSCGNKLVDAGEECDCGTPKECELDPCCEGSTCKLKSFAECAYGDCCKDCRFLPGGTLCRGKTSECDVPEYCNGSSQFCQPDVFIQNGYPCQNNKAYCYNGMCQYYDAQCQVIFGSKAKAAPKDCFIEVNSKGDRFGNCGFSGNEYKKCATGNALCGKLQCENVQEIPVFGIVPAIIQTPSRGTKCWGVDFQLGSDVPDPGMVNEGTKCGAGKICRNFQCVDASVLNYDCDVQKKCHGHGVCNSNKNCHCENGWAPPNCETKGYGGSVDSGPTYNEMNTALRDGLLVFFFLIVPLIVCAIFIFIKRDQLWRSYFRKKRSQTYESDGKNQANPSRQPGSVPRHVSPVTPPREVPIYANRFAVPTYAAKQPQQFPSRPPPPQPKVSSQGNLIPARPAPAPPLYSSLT
The data set can be described thus: Inhibition of ADAM9 (unknown origin).

The target in the next data set is T4, Interstitial collagenase (Homo sapiens, UniProt P03956).
T4 sequence (P03956 whole entry): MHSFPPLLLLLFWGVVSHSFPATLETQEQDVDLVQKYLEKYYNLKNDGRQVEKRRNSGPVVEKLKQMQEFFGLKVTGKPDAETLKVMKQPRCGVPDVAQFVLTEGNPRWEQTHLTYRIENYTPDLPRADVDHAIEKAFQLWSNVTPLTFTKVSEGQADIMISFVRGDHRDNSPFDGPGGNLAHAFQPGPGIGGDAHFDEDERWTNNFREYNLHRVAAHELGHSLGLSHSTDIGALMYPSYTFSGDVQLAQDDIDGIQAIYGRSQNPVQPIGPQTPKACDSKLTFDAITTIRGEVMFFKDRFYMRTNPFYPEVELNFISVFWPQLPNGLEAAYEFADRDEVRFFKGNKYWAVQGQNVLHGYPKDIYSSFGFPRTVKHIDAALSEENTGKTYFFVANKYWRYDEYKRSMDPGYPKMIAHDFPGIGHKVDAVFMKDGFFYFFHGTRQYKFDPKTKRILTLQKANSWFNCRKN
The data set can be described thus: Inhibition of recombinant human MMP1 catalytic domain using Mca-Pro-Leu-Gly-Leu-Dpa-Ala-Arg-NH2 as substrate after 10 mins by fluorescence assay.

Data set [9] deals with Matrix metalloproteinase-9 (Homo sapiens, UniProt P14780). The data set can be described thus: Inhibition of MMP9 (unknown origin).
Chain of Matrix metalloproteinase-9 (P14780 whole entry): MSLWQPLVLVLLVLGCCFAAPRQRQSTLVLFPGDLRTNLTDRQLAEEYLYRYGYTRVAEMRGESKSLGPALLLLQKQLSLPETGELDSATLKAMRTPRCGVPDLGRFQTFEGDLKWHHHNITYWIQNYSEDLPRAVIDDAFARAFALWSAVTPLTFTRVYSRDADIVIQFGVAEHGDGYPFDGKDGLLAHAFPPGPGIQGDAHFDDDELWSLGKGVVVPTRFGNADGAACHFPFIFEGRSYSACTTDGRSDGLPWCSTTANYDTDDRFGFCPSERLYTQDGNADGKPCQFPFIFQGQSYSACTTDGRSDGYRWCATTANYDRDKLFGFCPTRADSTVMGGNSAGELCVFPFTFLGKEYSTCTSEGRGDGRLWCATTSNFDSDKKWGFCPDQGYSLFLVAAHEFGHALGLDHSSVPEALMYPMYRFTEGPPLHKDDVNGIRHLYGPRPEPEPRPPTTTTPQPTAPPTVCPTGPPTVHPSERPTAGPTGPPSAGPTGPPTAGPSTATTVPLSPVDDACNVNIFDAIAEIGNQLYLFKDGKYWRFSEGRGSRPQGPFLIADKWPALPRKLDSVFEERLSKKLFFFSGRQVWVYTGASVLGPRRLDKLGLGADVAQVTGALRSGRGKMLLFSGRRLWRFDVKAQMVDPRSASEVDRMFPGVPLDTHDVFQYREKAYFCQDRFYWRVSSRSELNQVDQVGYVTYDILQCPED
Data set [10] relates to Salmonella typhimurium. Description: Mutagenicity in Salmonella typhimurium TA100 in absence of rat S9 fraction by Ames test. To be noted: salmonella enterica subsp. enterica serovar typhimurium. The class given is toxicity, organism-based.
The test system of data set [11] is Salmonella typhimurium. The data set can be described thus: Mutagenicity in Salmonella typhimurium TA100 in presence of rat S9 fraction by Ames test. The format is toxicity, organism-based. To be noted: salmonella enterica subsp. enterica serovar typhimurium.
The subject of data set [12] is TK6. Description: Genotoxicity in p53-competent human TK6 cells in presence of Sprague-Dawley rat S9 fraction by GADD45alpha GFP reporter assay. The format is toxicity, cell-based.
Data set [13] addresses 72 kDa type IV collagenase (Homo sapiens, UniProt P08253). Description: Inhibition of MMP2 (unknown origin).
Data set [14] has as its target T1, Disintegrin and metalloproteinase domain-containing protein 17. Description: Inhibition of TACE in human PBMC assessed as reduction in LPS-induced TNFalpha production incubated overnight by HTRF assay. The class given is cell-based.
Data set [15] can be described thus: Stability of the compound in propylene glycol/ethanol96 at 0.1 mg/ml measured up to 3 months by HPLC analysis. Conditions: read-out: Stability. The format is physicochemical.
The subject of data set [16] is TK6. Description: Genotoxicity in human TK6 cells in presence of rat S9 fraction by Giemsa staining based micronucleus assay. The class given is toxicity, cell-based.

T1 sequence (P78536 whole entry, the tested form may be a part): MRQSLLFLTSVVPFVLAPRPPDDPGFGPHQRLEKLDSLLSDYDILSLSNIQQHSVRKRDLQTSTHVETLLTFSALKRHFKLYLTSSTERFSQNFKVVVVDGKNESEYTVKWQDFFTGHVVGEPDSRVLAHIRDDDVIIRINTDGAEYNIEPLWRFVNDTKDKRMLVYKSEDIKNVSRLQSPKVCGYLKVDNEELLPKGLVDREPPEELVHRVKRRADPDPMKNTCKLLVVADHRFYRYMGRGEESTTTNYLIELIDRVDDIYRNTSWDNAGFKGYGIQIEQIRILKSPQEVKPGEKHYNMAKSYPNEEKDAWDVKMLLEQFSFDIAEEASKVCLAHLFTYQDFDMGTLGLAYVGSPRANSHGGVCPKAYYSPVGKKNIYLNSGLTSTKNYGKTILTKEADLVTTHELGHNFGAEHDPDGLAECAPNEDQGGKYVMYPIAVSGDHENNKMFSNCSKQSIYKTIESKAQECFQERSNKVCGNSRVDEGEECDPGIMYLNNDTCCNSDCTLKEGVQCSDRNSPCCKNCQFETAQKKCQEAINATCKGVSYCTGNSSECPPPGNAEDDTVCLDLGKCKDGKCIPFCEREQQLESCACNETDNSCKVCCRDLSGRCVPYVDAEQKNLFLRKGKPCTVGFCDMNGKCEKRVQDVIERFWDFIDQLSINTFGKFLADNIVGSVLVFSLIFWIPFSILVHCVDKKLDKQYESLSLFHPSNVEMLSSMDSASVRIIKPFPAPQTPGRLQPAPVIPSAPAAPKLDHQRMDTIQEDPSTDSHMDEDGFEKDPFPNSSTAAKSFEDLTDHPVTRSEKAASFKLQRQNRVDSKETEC
Chain of Neutrophil collagenase (P22894 whole entry): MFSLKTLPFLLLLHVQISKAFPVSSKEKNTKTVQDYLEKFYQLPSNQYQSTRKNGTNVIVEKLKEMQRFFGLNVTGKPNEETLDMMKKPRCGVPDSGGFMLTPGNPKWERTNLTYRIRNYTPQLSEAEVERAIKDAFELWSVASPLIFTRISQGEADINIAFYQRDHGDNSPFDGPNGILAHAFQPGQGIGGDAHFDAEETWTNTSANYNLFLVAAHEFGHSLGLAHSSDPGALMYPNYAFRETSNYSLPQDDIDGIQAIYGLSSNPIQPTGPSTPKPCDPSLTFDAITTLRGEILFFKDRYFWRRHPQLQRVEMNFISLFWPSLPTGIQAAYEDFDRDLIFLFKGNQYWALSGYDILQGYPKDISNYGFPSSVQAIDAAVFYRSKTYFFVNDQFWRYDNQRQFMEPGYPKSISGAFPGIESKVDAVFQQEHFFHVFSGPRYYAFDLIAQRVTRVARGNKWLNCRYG
Chain of 72 kDa type IV collagenase (P08253 whole entry, the tested form may be a part): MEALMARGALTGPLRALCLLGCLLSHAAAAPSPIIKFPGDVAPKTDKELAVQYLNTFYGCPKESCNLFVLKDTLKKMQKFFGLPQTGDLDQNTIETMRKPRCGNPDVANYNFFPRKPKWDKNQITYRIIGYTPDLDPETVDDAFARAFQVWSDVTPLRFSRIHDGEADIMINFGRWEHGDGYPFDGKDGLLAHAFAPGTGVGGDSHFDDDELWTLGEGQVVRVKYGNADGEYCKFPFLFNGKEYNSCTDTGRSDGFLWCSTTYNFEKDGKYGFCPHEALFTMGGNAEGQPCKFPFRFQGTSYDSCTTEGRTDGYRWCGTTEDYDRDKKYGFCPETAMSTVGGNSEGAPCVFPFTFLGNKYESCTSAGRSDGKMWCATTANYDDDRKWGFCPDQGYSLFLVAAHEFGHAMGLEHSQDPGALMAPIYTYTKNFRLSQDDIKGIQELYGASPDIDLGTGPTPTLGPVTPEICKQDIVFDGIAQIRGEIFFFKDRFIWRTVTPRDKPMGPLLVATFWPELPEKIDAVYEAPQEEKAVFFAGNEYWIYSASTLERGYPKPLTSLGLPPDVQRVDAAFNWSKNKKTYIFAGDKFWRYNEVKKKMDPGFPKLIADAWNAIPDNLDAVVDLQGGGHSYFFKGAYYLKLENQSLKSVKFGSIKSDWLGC
Chain of Macrophage metalloelastase (P39900 whole entry): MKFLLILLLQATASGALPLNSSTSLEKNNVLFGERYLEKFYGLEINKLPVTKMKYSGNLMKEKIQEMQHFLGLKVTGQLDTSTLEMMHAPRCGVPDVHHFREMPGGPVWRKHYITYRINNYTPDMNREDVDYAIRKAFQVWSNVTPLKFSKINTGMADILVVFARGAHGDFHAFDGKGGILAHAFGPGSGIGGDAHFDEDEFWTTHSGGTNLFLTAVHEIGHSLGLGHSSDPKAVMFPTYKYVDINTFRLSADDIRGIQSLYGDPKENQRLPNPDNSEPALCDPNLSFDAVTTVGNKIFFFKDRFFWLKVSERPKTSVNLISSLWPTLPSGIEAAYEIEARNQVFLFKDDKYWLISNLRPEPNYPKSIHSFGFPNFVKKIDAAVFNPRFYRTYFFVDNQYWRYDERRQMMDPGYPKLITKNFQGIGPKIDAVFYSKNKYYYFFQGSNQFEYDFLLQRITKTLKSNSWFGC

A word on the IC50: it is the concentration needed to halve the response being measured. One may read the half-life as how long it takes for the measured level to halve. A lower half-life goes with rapid decline. As a reminder, the fraction unbound is the share of the substance not bound to proteins or other matrix. By solubility is commonly meant how much of the substance goes into solution per volume. Read a low solubility as a poorly soluble substance. Take `Cc1cc(COc2ccc(S(=O)(=O)N(C)C3(C(=O)NO)CN(C(=O)C(C)C)C3)cc2)c2ccccc2n1`: the IC50 was 2600 nM at Neutrophil collagenase; 3 nM in data set [2]; 13 nM in data set [4]; 180 nM on Matrilysin; 90 nM in [8]; 4500 nM at Interstitial collagenase. Besides, the half-inhibitory concentration (IC50) in [9] was determined as 2100 nM; in data set [13], 890 nM; in data set [14], 9 nM. In addition, the Activity result with TK6 [1], with TK6 [5], in the data set on Salmonella typhimurium [10], in the data set with Salmonella typhimurium [11], in the data set with TK6 [12] and in the data set on TK6 [16] was “Non-Toxic” throughout. For the same compound, the half-life at 1 µM in data set [3] was more than 24 h. Moreover, the unbound share (fraction unbound) at 4 h, 5 µM in [6] turned out to be 0.019. The solubility at 24 h in [7] lay in the range of 56 to 57 mM (≈ 29.5 to 30 mg/mL). For the same compound, the remaining at 0.1 mg/ml in data set [15] came to 99%.

On to `Cc1cc(COc2ccc(S(=O)(=O)N(C)C3(C(=O)NO)CN(C(=O)CC(C)C)C3)cc2)c2ccccc2n1`, for which the half-maximal inhibitory concentration (IC50) against Neutrophil collagenase is 3700 nM; in [2], 20 nM; in data set [4] it was 6 nM; against Matrilysin, 210 nM; in data set [8], 480 nM; at Interstitial collagenase, 4600 nM. In addition, the IC50 turned out to be 2200 nM in [9], 1000 nM in data set [13] and 33 nM in data set [14]. Besides, the Activity entry in the data set with TK6 [1], in the data set on TK6 [5], in the data set with Salmonella typhimurium [10], in the data set on Salmonella typhimurium [11], in the data set on TK6 [12] and with TK6 [16] was “Non-Toxic” in each case. This compound came in with a half-life at 1 µM in data set [3] of more than 24 h. The free fraction (fraction unbound) at 4 h, 5 µM in [6] is 0.003. The same compound showed a solubility at 24 h in data set [7] of 45 mM (≈ 24.3 mg/mL). Besides, the remaining at 0.1 mg/ml in data set [15] was 99%.
